Test results: patent US20260193268A1, “TRICYCLIC PI3Ka INHIBITOR, PREPARATION METHOD THEREFOR, AND PHARMACEUTICAL USE THEREOF” (WIGEN BIOMEDICINE TECHNOLOGY (SHANGHAI) CO., LTD., priority 2022, published 2026)
Where two headings read alike, the source gives them in different places. Values belong to the molecule of their own block, whether it stands above or below them.

Assays:
[1] = test system: MCF-7 cells (with PI3Kα E545K mutation); assay: In vitro inhibition of MCF-7 cell proliferation (CellTiter-Lumi); format: cell-based
Summary of the method: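 MCF-7 (PI3Kα E545K) seeded at 2000 cells/well; serially diluted compounds added next day and exposed for 144 h. Cellular ATP read by CellTiter-Lumi luminescence; IC50 for growth inhibition calculated.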

[2] = test system: HCC1954 cells (with PI3Kα H1047R mutation); assay: In vitro inhibition of HCC1954 cell proliferation (CellTiter-Lumi); format: cell-based; settings: HCC1954 cells, 144 h, CellTiter-Lumi
Method: Assay for In Vitro Inhibition of HCC1954 Cell Proliferation by Compounds of the Present Disclosure
The growth of the cells was evaluated, and the IC50 for the inhibition of cell growth by the compounds was calculated.

[3] = Homo sapiens, MCF7, 144 h, class symbols, read-out: Inhibitory activity against MCF-7 cells (IC50), class symbols
[4] = Homo sapiens, HCC1954, 144 h, class symbols, read-out: Inhibitory activity against HCC1954 cells (IC50), class symbols
[5] = numeric values, read-out: Inhibitory activity against HCC1954 cells (IC50)
[6] = Homo sapiens, MCF7, 144 h, numeric values, read-out: Inhibitory activity against MCF-7 cells (IC50)
[7] = Homo sapiens, HCC1954, 144 h, numeric values, read-out: Inhibitory activity against HCC1954 cells (IC50)

IC50 ([1]; 144 h, numeric values, read-out: Inhibitory activity against MCF-7 cells (IC50)): 0.1 nM
IC50 [2, 5]: 0.1 nM
Structure (SMILES): CC(C)(C=C(C#N)C(=O)Nc1ccc(N2CC(N3CCN(c4ccc5c(c4)-c4nc(N6C(=O)OC[C@H]6C(F)F)cn4CCO5)CC3)C2)cc1)NC(=O)OC(C)(C)C [Compound 324A]

IC50 [1, 6]: 0.14 nM
IC50 [2, 7]: 6 nM
Structure (SMILES): C=CC(=O)Nc1ccc(N2CC(N3CCN(c4ccc5c(c4)-c4nc(N6C(=O)SC[C@H]6C(F)F)cn4CCO5)CC3)C2)cc1 [Compound 106]

IC50 [1, 3]: < 50 nM
IC50 [2, 4]: < 50 nM
Structure (SMILES): CN(C1COC1)C(C)(C)C=C(C#N)C(=O)Nc1ncc(N2CC(N3CCN(c4ccc5c(c4)-c4nc(N6C(=O)OC[C@H]6C(F)F)cn4CCO5)CC3)C2)cn1 [Compound 292]

IC50 [1, 3]: < 50 nM
IC50 [2, 4]: < 50 nM
Structure (SMILES): CC(C)(C=C(C#N)C(=O)Nc1ccc(N2CC(N3CCN(c4ccc5c(c4)-c4nc(N6C(=O)OC[C@H]6C(F)F)cn4CCO5)CC3)C2)c(F)c1)N1CCC1 [Compound 229]

IC50 [1, 3]: < 50 nM
IC50 [2, 4]: < 50 nM
Structure (SMILES): CNC(C)(C)C=C(C#N)C(=O)Nc1ccc(N2CC(N3CCN(c4ccc5c(c4)-c4nc(N6C(=O)OC[C@H]6C(F)F)cn4CCO5)CC3)C2)c(F)c1 [Compound 225]

IC50 [1, 3]: < 50 nM
IC50 [2, 4]: < 50 nM
Structure (SMILES): COC(C)(C)C=C(C#N)C(=O)Nc1cnc(N2CC(N3CCN(c4ccc5c(c4)-c4nc(N6C(=O)OC[C@H]6C(F)F)cn4CCO5)CC3)C2)nc1 [Compound 267]

IC50 [1, 3]: < 50 nM
IC50 [2, 4]: < 50 nM
Structure (SMILES): Cc1nc(-c2cn3c(n2)-c2cc(N4CCN(C5CN(c6ccc(NC(=O)C(C#N)=CC(C)(C)NC(=O)OC(C)(C)C)cc6F)C5)CC4)ccc2OCC3)n(C(C)C)n1 [Compound 374]

IC50 [1, 3]: < 50 nM
IC50 [2, 4]: 50 to 100 nM
Structure (SMILES): C=CC(=O)Nc1ccc(N2CCC(/C=C/c3ccc4c(c3)-c3nc(N5C(=O)OC[C@H]5C(F)F)cn3CCO4)CC2)cc1 [Compound 209]

IC50 [1, 3]: < 50 nM
IC50 [2, 4]: 100 to 1000 nM
Structure (SMILES): C=CC(=O)N1CC(C2CCN(c3ccc(-c4ccc5c(c4)-c4nc(N6C(=O)OC[C@H]6C(F)F)cn4CCO5)cc3)CC2)C1 [Compound 199]

IC50 [1, 3]: < 50 nM
IC50 [2, 4]: < 50 nM
Structure (SMILES): CC=C(C#N)C(=O)Nc1ccc(N2CC(N3CCN(c4ccc5c(c4)-c4nc(N6C(=O)OC[C@H]6C(F)F)cn4CCO5)CC3)C2)cc1 [Compound 187]

IC50 [1, 6]: 6.7 nM
IC50 [2, 7]: 59 nM
Structure (SMILES): C=CC(=O)Nc1ccc(N2CC(N3CCN(c4cc5c(cc4OC)OCCn4cc(N6C(=O)OC[C@H]6C(F)F)nc4-5)CC3)C2)cc1 [Compound 98]

IC50 [1, 6]: 6.9 nM
IC50 [2, 7]: 4.9 nM
Structure (SMILES): COCC#CC(=O)Nc1ccc(N2CC(N3CCN(c4ccc5c(c4)-c4nc(N6C(=O)OC[C@H]6C(F)F)cn4CCO5)CC3)C2)cc1 [Compound 168]

IC50 [1, 6]: 3.5 nM
IC50 [2, 7]: 47 nM
Structure (SMILES): C=CC(=O)Nc1ccc(C2CN(C3CCN(c4ccc5c(c4)-c4nc(N6C(=O)OC[C@H]6C(F)F)cn4CCO5)CC3)C2)cc1 [Compound 160]

IC50 [1, 3]: < 50 nM
IC50 [2, 4]: < 50 nM
Structure (SMILES): CNC(C)(C)C=C(C#N)C(=O)Nc1ccc(N2CC(N3CCN(c4ccc5c(c4)-c4nc(-c6nc(C)nn6C(C)C)cn4CCO5)CC3)C2)cc1 [Compound 337]

IC50 [1, 3]: < 50 nM
IC50 [2, 4]: < 50 nM
Structure (SMILES): CC(C)(C)C=C(C#N)C(=O)Nc1ccc(N2CC(N3CCN(c4ccc5c(c4)-c4nc(N6C(=O)OC[C@H]6C(F)F)c(F)n4CCO5)CC3)C2)cc1 [Compound 321]

IC50 [1, 3]: < 50 nM
IC50 [2, 4]: < 50 nM
Structure (SMILES): CN(C1COC1)C(C)(C)C=C(C#N)C(=O)Nc1ccc(N2CC(N3CCN(c4ccc5c(c4)-c4nc(N6C(=O)OC[C@H]6C(F)F)cn4CCO5)CC3)C2)cc1Cl [Compound 361]

IC50 [1, 6]: 26 nM
IC50 [2, 7]: 166 nM
Structure (SMILES): C=CC(=O)Nc1ccc(N2CCN(c3ccc4c(c3)-c3nc(N5C(=O)OC[C@H]5C(F)F)cn3CCO4)CC2)cc1 [Compound 174]

IC50 [1, 3]: < 50 nM
IC50 [2, 4]: < 50 nM
Structure (SMILES): N#CC(=CC1CC1)C(=O)Nc1cnc(N2CC(N3CCN(c4ccc5c(c4)-c4nc(N6C(=O)OC[C@H]6C(F)F)cn4CCO5)CC3)C2)nc1 [Compound 263]

The next lines start with the molecule.

Structure (SMILES): CC(C)=CC(=O)CCCC(=O)N1CCC(/C=C/c2ccc3c(c2)-c2nc(N4C(=O)OC[C@H]4C(F)F)cn2CCO3)CC1 [Compound 189]
IC50 [1, 3]: < 50 nM
IC50 [2, 4]: 50 to 100 nM

Structure (SMILES): COCCNC(C)(C)C=C(C#N)C(=O)Nc1ccc(N2CC(N3CCN(c4ccc5c(c4)-c4nc(N6C(=O)OC[C@H]6C(F)F)cn4CCO5)CC3)C2)nc1 [Compound 250]
IC50 [1, 3]: < 50 nM
IC50 [2, 4]: < 50 nM

Structure (SMILES): CC(C)(C=C(C#N)C(=O)Nc1ccc(N2CC(N3CCN(c4ccc5c(c4)-c4nc(N6C(=O)OC[C@H]6C(F)F)cn4CCO5)CC3)C2)cc1)N1CCNCC1 [Compound 306]
IC50 [1, 3]: < 50 nM
IC50 [2, 4]: < 50 nM

Structure (SMILES): C=CC(=O)Nc1ccc(N2CC(N3CCN(c4ccc5c(c4)-c4nc(N6C(=O)CC[C@H]6C(F)F)cn4CCO5)CC3)C2)cc1 [Compound 178]
IC50 [1, 3]: < 50 nM
IC50 [2, 4]: < 50 nM

Structure (SMILES): CNC(C)(C)C=C(C#N)C(=O)Nc1cc(N2CC(N3CCN(c4ccc5c(c4)-c4nc(N6C(=O)OC[C@H]6C(F)F)cn4CCO5)CC3)C2)n(C)n1 [Compound 219]
IC50 [1, 3]: < 50 nM
IC50 [2, 4]: < 50 nM

Structure (SMILES): CN(C(=O)OC(C)(C)C)C(C)(C)C=C(C#N)C(=O)Nc1ccc(N2CC(N3CCN(c4ccc5c(c4)-c4nc(N6C(=O)OC[C@H]6C(F)F)cn4CCO5)CC3)C2)cc1 [Compound 335]
IC50 [1, 3]: < 50 nM
IC50 [2, 4]: < 50 nM

Structure (SMILES): CC(C)(C=C(C#N)C(=O)Nc1ccc(N2CC(N3CCN(c4ccc5c(c4)-c4nc(N6C(=O)OC[C@H]6C(F)F)cn4CCO5)CC3)C2)nc1)NC1COC1 [Compound 239]
IC50 [1, 3]: < 50 nM
IC50 [2, 4]: < 50 nM

Structure (SMILES): C=CC(=O)N1CC(N2CCC(N3CCN(c4ccc5c(c4)-c4nc(N6C(=O)OC[C@H]6C(F)F)cn4CCO5)CC3)C2)C1 (some centres unmarked) [Compound 90]
IC50 [1, 6]: 12 nM
IC50 [2, 7]: 225 nM

Structure (SMILES): CC(C)=CC(=O)CCCC(=O)N1CCN(Cc2ccc3c(c2)-c2nc(N4C(=O)OC[C@H]4C(F)F)cn2CCO3)CC1 [Compound 190]
IC50 [1, 3]: < 50 nM
IC50 [2, 4]: 50 to 100 nM

Structure (SMILES): C=CC(=O)N1CCC(CN2CCC(N3CCN(c4ccc5c(c4)-c4nc(N6C(=O)OC[C@H]6C(F)F)cn4CCO5)CC3)CC2)CC1 [Compound 9]
IC50 [1, 6]: 75 nM
IC50 [2, 7]: > 1000 nM

Structure (SMILES): C=CC(=O)Nc1ccc(N2CC(N3CCN(c4ccc5c(c4)-c4nc(N6C(=O)OC[C@H]6C(F)F)cn4CCO5)CC3)C2)cc1C#N [Compound 143]
IC50 [1, 6]: 0.1 nM
IC50 [2, 7]: 2.2 nM

Structure (SMILES): C=CC(=O)Nc1ccc(N2CC(N3CCC(c4ccc5c(c4)-c4nc(N6C(=O)OC[C@H]6C(F)F)cn4CCO5)CC3)C2)cc1 [Compound 104]
IC50 [1, 6]: 4.6 nM
IC50 [2, 7]: 65 nM

Structure (SMILES): C=CC(=O)N1CCN(CCCC(=O)N2CCN(c3ccc4c(c3)-c3nc(N5C(=O)OC[C@H]5C(F)F)cn3CCO4)CC2)CC1 [Compound 15]
IC50 [1, 6]: 14 nM
IC50 [2, 7]: 128 nM

Structure (SMILES): C=CC(=O)Nc1ccc(N2CC(N3CCN(c4ccc5c(c4)-c4nc(N6C(=O)OC[C@H]6C(F)F)cn4CCO5)CC3)C2)nn1 [Compound 161]
IC50 [1, 6]: 0.5 nM
IC50 [2, 7]: 2.9 nM

Structure (SMILES): CCC(N)(C=C(C#N)C(=O)Nc1ccc(N2CC(N3CCN(c4ccc5c(c4)-c4nc(N6C(=O)OC[C@H]6C(F)F)cn4CCO5)CC3)C2)cc1)CC [Compound 395]
IC50 [1, 3]: < 50 nM
IC50 [2, 4]: < 50 nM

Structure (SMILES): C[C@H](Nc1ccc2c(c1)OCCn1cc(N3C(=O)OC[C@H]3C(F)F)nc1-2)C(N)=O [GDC0077, GDC-0077, reference compound]
IC50 [1, 6]: 55 nM
IC50 [2, 5]: 82 nM

Structure (SMILES): N#CC(=CC1CCCN1)C(=O)Nc1cnc(N2CC(N3CCN(c4ccc5c(c4)-c4nc(N6C(=O)OC[C@H]6C(F)F)cn4CCO5)CC3)C2)nc1 (some centres unmarked) [Compound 270]
IC50 [1, 3]: < 50 nM
IC50 [2, 4]: < 50 nM

Structure (SMILES): COc1cc2c(cc1N1CCN(C3CN(c4ccc(NC(=O)C(C#N)=CC(C)(C)C)cc4)C3)CC1)-c1nc(N3C(=O)OC[C@H]3C(F)F)cn1CCO2 [Compound 318]
IC50 [1, 3]: < 50 nM
IC50 [2, 4]: < 50 nM

Structure (SMILES): C=CC(=O)N1CC(C(=O)N2CC3(CCN(c4ccc5c(c4)-c4nc(N6C(=O)OC[C@H]6C(F)F)cn4CCO5)CC3)C2)C1 [Compound 86]
IC50 [1, 6]: 17 nM
IC50 [2, 7]: 126 nM

Structure (SMILES): C=CC(=O)Nc1ccc(N2CC(N3CC=C(c4ccc5c(c4)-c4nc(N6C(=O)OC[C@H]6C(F)F)cn4CCO5)CC3)C2)cc1 [Compound 103]
IC50 [1, 6]: 2 nM
IC50 [2, 7]: 23 nM

Structure (SMILES): C=CC(=O)Nc1ccc(CN2CC3(CCN(c4ccc5c(c4)-c4nc(N6C(=O)OC[C@H]6C(F)F)cn4CCO5)CC3)C2)cc1 [Compound 43]
IC50 [1, 6]: 19 nM
IC50 [2, 7]: 184 nM

Structure (SMILES): CC(C)=CC(=O)CCC(=O)N1CCC(C#Cc2ccc3c(c2)-c2nc(N4C(=O)OC[C@H]4C(F)F)cn2CCO3)CC1 [Compound 191]
IC50 [1, 3]: < 50 nM
IC50 [2, 4]: 50 to 100 nM
